According to ChEMBL document CHEMBL5365530, “Identification of a Novel, Potent, and Orally Bioavailable Guanidine-Based SHP2 Allosteric Inhibitor from Virtual Screening and Rational Structural Optimization for the Treatment of KRAS Mutant Cancers” (J Med Chem, 2023):

Tests used:
[1] = target: T1, Tyrosine-protein phosphatase non-receptor type 11 (Homo sapiens, UniProt Q06124); assay: Allosteric Inhibition of H2N-LN(pY)IDLDLV(dPEG8)LST(pY)ASINFQKASINFQK-amide-activated SHP2 (unknown origin) using DiFMUP as substrate pretreated with enzyme for 1 hr followed by substrate addition and measured after 20 mins by fluorescence based analysis
T1 sequence (Q06124 whole entry): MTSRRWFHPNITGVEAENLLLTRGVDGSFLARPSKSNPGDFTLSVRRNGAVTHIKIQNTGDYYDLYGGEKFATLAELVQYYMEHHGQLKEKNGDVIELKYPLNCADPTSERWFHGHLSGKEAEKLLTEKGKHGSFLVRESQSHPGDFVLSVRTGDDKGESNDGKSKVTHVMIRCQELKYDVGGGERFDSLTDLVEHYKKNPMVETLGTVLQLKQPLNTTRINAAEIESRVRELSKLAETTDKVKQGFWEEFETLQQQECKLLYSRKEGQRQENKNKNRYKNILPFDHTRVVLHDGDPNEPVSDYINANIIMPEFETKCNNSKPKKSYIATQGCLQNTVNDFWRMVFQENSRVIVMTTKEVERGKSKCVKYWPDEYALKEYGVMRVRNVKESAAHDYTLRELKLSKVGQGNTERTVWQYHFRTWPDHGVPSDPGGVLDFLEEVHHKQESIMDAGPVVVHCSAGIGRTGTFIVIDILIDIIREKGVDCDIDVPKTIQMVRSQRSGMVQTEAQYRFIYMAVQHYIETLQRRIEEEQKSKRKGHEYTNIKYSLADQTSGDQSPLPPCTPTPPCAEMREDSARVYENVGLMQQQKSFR

MIA PaCa-2 = assay: Antiproliferative activity against human MIA PaCa-2 cells harboring KRASG12C mutant assessed as inhibition of cell growth incubated for 72 hrs by CellTiter-LumiII Luminescent assay; type: functional, cell-based; details: MIA PaCa-2, 72 h
KYSE-520 cell line = assay: Antiproliferative activity against human KYSE-520 cells assessed as inhibition of cell growth incubated for 72 hrs by CellTiter-LumiII Luminescent assay; type: functional, cell-based; details: KYSE-520, 72 h
RAW264.7 = assay: Cytotoxicity against mouse RAW264.7 cells assessed as cell viability at 10 to 30 uM incubated for 72 hrs by CellTiter-LumiII Luminescent assay; type: toxicity, cell-based; details: raw264.7, 72 h, dose 10-30 µM
[2] = Hepatotoxicity in ICR mouse assessed as increase in plasma AST level at 100 mg/kg, po administered once every 2 days and measured on day 14; type: toxicity, organism-based; details: in vivo, 336 h, time 14 day
[3] = Hepatotoxicity in ICR mouse assessed as increase in plasma ALT level at 100 mg/kg, po administered once every 2 days and measured on day 14; type: toxicity, organism-based; details: in vivo, 336 h, time 14 day
[4] = Hepatotoxicity in ICR mouse assessed as increase in plasma ALP level at 100 mg/kg, po administered once every 2 days and measured on day 14; type: toxicity, organism-based; details: in vivo, 336 h, time 14 day

Row | IC50 [1] [nM] | Compound | also measured
1 | 142 | N/C(=N\c1cccnc1)N1CCN(c2cnc(-c3cccc(Cl)c3Cl)c(N)n2)CC1 | –
2 | 3210 | CNC(=O)c1ccc(/N=C(\N)N2CCN(c3cnc(-c4cccc(Cl)c4Cl)c(N)n3)CC2)cc1 | –
3 | 137 | N/C(=N\c1ccccc1)N1CCN(c2cnc(-c3cccc(Cl)c3Cl)c(N)n2)CC1 | –
4 | 92.2 | N/C(=N\c1ccc(C(F)(F)F)cc1)N1CCN(c2cnc(-c3cccc(Cl)c3Cl)c(N)n2)CC1 | –
5 | 74.2 | N#Cc1ccc(/N=C(\N)N2CCN(c3cnc(-c4cccc(Cl)c4Cl)c(N)n3)CC2)cn1 | –
6 | 64.5 | N/C(=N\c1ccncc1)N1CCN(c2cnc(-c3cccc(Cl)c3Cl)c(N)n2)CC1 | –
7 | 52.7 | COc1ccc(/N=C(\N)N2CCN(c3cnc(-c4cccc(Cl)c4Cl)c(N)n3)CC2)cc1 | –

Further lines, the compound ahead of its results:

Row | Compound | IC50 [1] [nM] | also measured
8 | N=C(N)N1CCN(c2cnc(-c3cccc(Cl)c3Cl)c(N)n2)C(=O)C1 | > 10000 | –
9 | CN(CCN(C)c1cnc(-c2cccc(Cl)c2Cl)c(N)n1)C(=N)N | 6250 | –
10 | N/C(=N\c1cnccn1)N1CCN(c2cnc(-c3cccc(Cl)c3Cl)c(N)n2)CC1 | 396 | –
11 | N/C(=N\c1ccccn1)N1CCN(c2cnc(-c3cccc(Cl)c3Cl)c(N)n2)CC1 | 184 | –
12 | N/C(=N\C(=O)c1ccncc1)N1CCN(c2cnc(-c3cccc(Cl)c3Cl)c(N)n2)CC1 | 4850 | –
13 | CC1(N)CCN(c2cnc(-c3cccc(Cl)c3Cl)c(N)n2)CC1 | – | IC50 (MIA PaCa-2): 41900 nM; IC50 (KYSE-520 cell line): 10800 nM; Activity (RAW264.7): Non-Toxic; Activity [2]: Toxic; Activity [3]: Toxic; Activity [4]: Toxic
14 | N/C(=N\c1ncccn1)N1CCN(c2cnc(-c3cccc(Cl)c3Cl)c(N)n2)CC1 | 715 | –
15 | N/C(=N\c1cccs1)N1CCN(c2cnc(-c3cccc(Cl)c3Cl)c(N)n2)CC1 | 252 | –
